≈ marks a conversion by molar mass, not a printed value.
Legend:
[1] = system: HPV-31 specific DNA; assay: Long-term study: HPV-31 specific DNA level (Southern blot); format: cell-based, human papilloma virus; details: for T50 DNA: at 10 μg/mL
Description: (§1) HPV-31 infected cells (3×10^6) were dispensed into 14.5 cm dishes containing fresh E medium and 1×10^6 cells of mitomycin C-treated 3T3 fibroblast feeders. The dishes were incubated in a CO2 incubator under 5% CO2 at 37° C. in 100% humidity. Human A431 epithelial cancer cells were used as HPV-uninfected negative controls. After 6 hr incubation, the cell culture medium was removed and fresh E medium containing 0.85 g/L NaHCO3 and a test compound at concentrations of 10 and 3.3 μg/mL, or control (interferon γ at 200 IU/mL) were added. For each concentration, 4 dishes were prepared. The dishes were incubated at 37° C. in a CO2 incubator. The culture medium was replaced to new E medium containing each concentration of the test compound or control in every 72 hrs. After seven days, or when untreated cells became confluent, one dish of each group was harvested for DNA/RNA extraction, followed by Southern/Northern Blot analysis; and one dish was trypsinized, cell number were determined and cells were seeded in three new dishes, treated and cultured as described above. This procedure was repeated for 9 passages. During these passages, morphology of cells and cell density were monitored.
(§2) Effect on HPV-31 specific DNA and RNA: DNA and RNA were analyzed in Southern and Northern Blot gels for HPV-31 specific sequences. X-ray films were scanned and optical densities of HPV-31 specific DNA and major mRNA species were integrated. Time curves were established by plotting integrated values against number of passages for each treatment dose. The T50 (time required to reduce the level to 50% of control) was determined from the time curves from crossing points of time curves with a line parallel to the x-axis corresponding to 50% of integrals of untreated control sample.

[2] = system: HPV-31-infected CIN612 9E keratinocytes; assay: Long-term study: cell proliferation and morphology of CIN612 9E cells over 9 passages; format: cell-based
Description: as §1
Effect on cell proliferation. Cell numbers in the dishes harvested were determined in a Neubauer hematocytometer. The multiplication factor was determined at every step of passage. The cell number of each culture at the end of the passage was divided by the number of seeded cells at the start of each passage. The end point was reached when keratinocytes treated with a test compound stopped growing. Stop of cell growth was defined as a multiplication factor of no greater than 1.

[3] = system: HPV-31 specific RNA; assay: Short-term study: HPV-31 specific RNA expression (Northern blot); format: cell-based, human papilloma virus; details: 72 hrs
Description: (§3) Effect on HPV-31 specific DNA and RNA. HPV-31 infected cells (3×10^6) were dispensed into 14.5 cm dishes containing fresh E culture medium and 1×10^6 mitomycin C-treated J2 3T3 fibroblast feeders. After 6 hrs, fresh medium containing 0.85 g/L NaHCO3 and a test compound at a series of concentrations (0, 0.5, 1, 2, 4, 8, 16, and 32 μg/mL) were added. All samples were tested in duplicates at each concentration. After incubation at 37° C. for 72 hrs, the feeder cells were removed with 4 mM EDTA, and DNA and RNA was then isolated. The isolated DNA and RNA were analyzed in Southern and Northern Blot gels for HPV-31 specific sequences. Human A431 epithelial cancer cells were used as HPV-uninfected negative control. X-ray films were scanned and optical densities of HPV-31 specific DNA and major mRNA species were integrated.
(§4) Dose response curves were established by plotting integrated values against the concentrations of the test compound.

[4] = system: HPV-31 specific RNA; assay: Long-term study: HPV-31 specific RNA level (Northern blot); format: cell-based, human papilloma virus; details: for T50 RNA: at 10 μg/mL
Description: as §1, §2

[5] = system: HPV-31 specific DNA; assay: Short-term study: HPV-31 specific DNA (Southern blot); format: cell-based, human papilloma virus; details: at 32 μg/mL, 72 hrs
Description: as §3, §4

[6] = target: T1, phosphatidylcholine-specific phospholipase C (PC-PLC) (Bacillus cereus, UniProt P09598); assay: Amplex Red phosphatidylcholine-specific phospholipase C (PC-PLC) inhibition assay; format: biochemical, B. cereus; details: 30 min at 37° C., triplicate
T1 construct: purchased Invitrogen
T1 sequence (P09598 39-283 limits assumed): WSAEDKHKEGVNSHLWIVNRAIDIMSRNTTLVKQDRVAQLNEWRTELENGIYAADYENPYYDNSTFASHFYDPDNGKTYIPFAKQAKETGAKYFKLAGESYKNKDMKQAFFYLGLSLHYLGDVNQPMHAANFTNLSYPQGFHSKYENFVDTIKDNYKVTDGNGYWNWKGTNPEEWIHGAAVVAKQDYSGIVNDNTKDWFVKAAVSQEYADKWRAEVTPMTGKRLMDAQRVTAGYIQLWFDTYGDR
Description: (§5) The inhibitory activities of optically active potassium salts of (+)- and (−)-O-exo/C-exo-tricyclo [5.2.1.0^2,6]-dec-9-yl-xanthic acid 1A ((+)- and (−)-enantiomers 1A) against phosphatidylcholine-specific phospholipase C were evaluated, together with D609 and potassium salt of racemic O-exo/C-exo xanthic acid 1A (racemic 1A), using Amplex Red phosphatidylcholine-specific phospholipase C(PC-PLC) assay kit, which was obtained from Invitrogen (Calsbad, Calif.). D609 was obtained from Sigma Aldrich.
(§6) An Amplex Red stock solution (˜20 mM), a working reaction buffer, and a horseradish peroxidase stock solution (200 U/mL), a H2O2 working solution (20 mM), a choline oxidate stock solution (20 U/mL), an alkaline phosphatase stock solution (400 U/mL), and a B. cereus PC-PLC stock solution (10 U/mL) were prepared according to the instruction of the assay kit. The stock solution (100 mg/mL) for each test compound was also prepared by dissolving the compound in water 2 hr prior to the start of the experiment.
(§7) A working Amplex Red/HRP/lecithin solution was prepared by adding 200 μL of Amplex Red reagent stock solution, 100 μL of HRP stock solution, 200 μL of alkaline phosphatase stock solution, 100 μL of choline oxidase stock solution, and 78 μL of the lecithin solution to […] of the working reaction buffer. PC-PLC solution (0.2 U/mL) was prepared by diluting the PC-PLC stock solution with the working reaction buffer to the desired concentration.
(§8) The test compound (25 μL) at a serious of concentrations was pipetted into a 96 well plate. For uninhibited PC-PLC controls and non-PC-PLC controls, 25 μL of water was added. After the addition of 50 μL of the Amplex Red/HRP/lecithin working solution, the reaction was initiated by adding 25 μL of PC-PLC solution to each well. To the non-PC-PLC controls, 25 μL of water was added instead of PC-PLC solution. The experiment was performed in triplicate. The reactions were protected from light. After incubated for 30 min at 37° C., the reactions were measured with a fluorescence microplate reader using excitation at 550 nm and emission detection at 590 nm. The fluorescent data obtained were corrected for background fluorescence by subtracting the values obtained from the non-PC-PLC controls.

[7] = system: Calu-6 cells; assay: Cytotoxicity assay in Calu-6 cells (crystal violet); format: cell-based; details: 48 hr
Description: (§9) Calu-6 cells and RITA cells were grown in DMEM cell culture medium containing 10% fetal calf serum in CO2 incubator under 5% CO2 at 37° C. with 100% humidity.
(§10) For cytotoxicity assay, Calu-6 cells were seeded in 96 well plates at a density of 3×10^6 cells per plate in the DMEM cell culture medium. The plates were incubated at 37° C. in the presence of 5% CO2 for 24 hr. The DMEM cell culture medium in the plates was exchanged with fresh DMEM cell culture medium containing test compounds at a series of concentrations. The plates were incubated at 37° C. in the presence of 5% CO2 for 48 hr. The plates were then washed with PBS, fixed with 3% formaldehyde solution containing 0.9% NaCl for 1 min, washed by water for 10 sec, and dried overnight. For detection, the plates were stained with crystal violet solution for 5 min at room temperature, washed 5 times with water, and dried at room temperature overnight. After adding ethanol/acetic acid (99:1, v/v, […]) to each well, the plates were measured at 595 nm using an ELISA reader. A dose response curve was obtained for each compound tested by plotting the mean values of the optical densities against compound concentration.

[8] = system: phosphatidylcholine-specific phospholipase C (PC-PLC); details: Amtmann 1996; Muller-Decker 1989; cited from earlier work
[9] = system: Herpes simplex virus type-2 (HSV-2); assay: Inhibition of HSV-2 (plaque assay; Calu-6 infected, RITA cells for plaques); format: cell-based
Description: as §9
For HSV-2 inhibition, Calu-6 cells were seeded in 96 well plates at a density of 3×10^6 cells per plate in the DMEM cell culture medium. The plates were incubated at 37° C. in the presence of 5% CO2 for 24 hr. The DMEM cell culture medium in the plates was removed and the cells were infected with Herpes simplex virus type-2 at 50 plaque forming units per well. After incubation at 37° C. for 60 min, test compounds in DMEM cell culture medium at a series of concentrations were added. The plates were incubated at 37° C. in the presence of 5% CO2 for 48 hr. The plates were frozen at −20° C. prior to further analysis. After thawing at room temperature, supernatants containing infectious virus particles were prepared by centrifuging the supernatant from each well at 18,000 g at 4° C. for 5 min. The supernatant was further diluted before assay.
RITA cells were seeded in 24 well Linbra plates at a density of 4×10^6 cells per plate in 2 mL of DMEM cell culture medium. The plates were incubated at 37° C. in the presence of 5% CO2 for 24 hr. After the removal of the cell culture medium, 0.1 mL of the diluted supernatants was added and the plates were incubated at 37 C for 1 hr. DMEM cell medium containing 10% fetal calf serum and 0.5% methyl cellulose was added and the plates were incubated at 37 for 48 hr. The plates were then washed with PBS, fixed with 3% formaldehyde solution containing 0.9% NaCl for 1 min, washed by water for 10 sec, and dried overnight. For detection, the plates were then stained with crystal violet solution for 5 min at room temperature, washed 5 times with water, and dried at room temperature overnight. The number of plaques was determined macroscopically. The number of plaques per well was then multiplied with the dilution factor. Dose response curves were obtained by plotting the number of plaques/0.1 mL against compound concentration. The therapeutic index was also calculated for each compound by dividing LD50 with IC50.

[10] = Cytotoxicity assay in Calu-6 cells; format: cell-based; details: human, 37° C., read-out: LD50
Description: as §9, §10

[11] = system: bovine papilloma virus type I (BPV-1)-transformed HEF (HEF-BPV); assay: Inhibition of bovine papilloma virus, BPV-infected hamster embryo fibroblasts (HEF) cell proliferation assay; format: cell-based; details: Bos taurus papillomavirus 1; HEF-BPV, 72 hr, 37° C., pH 6.8; read-out: IC50
Description: Briefly, hamster embryo fibroblasts and bovine papilloma virus type I (BPV-1)-transformed HEF (HEF-BPV) were grown in Eagle's basal medium. […] and HEF cells were seeded in 96-well plates at a density of 0.5×10^6 cells per plate in DMEM cell culture medium containing 10% fetal calf serum at pH 6.8. The plates were then incubated in the presence of 5% CO2 in 100% humidity at 37° C. After 6 hr, the cell culture medium in the plates was exchanged with fresh DMEM cell culture medium containing test compounds at a series of concentrations. The plates were incubated at 37° C. for additional 72 hr. Cells in the plates were then washed with PBS, fixed with 3% formaldehyde solution containing 0.9% NaCl for 1 min, washed by water for 10 sec, and dried overnight. For detection, the plates were stained with crystal violet solution for 5 min at room temperature, washed 5 times with water, and dried at room temperature overnight. After adding ethanol/acetic acid (99:1, v/v, […]) to each well, the plates were measured at 595 nm using an ELISA reader.

[12] = target: T2, B. cereus PC-PLC (phosphatidylcholine-specific phospholipase C) (Bacillus cereus, UniProt P09598); assay: Inhibition of phosphatidylcholine-specific phospholipase C (Amplex Red PC-PLC assay kit); format: biochemical
T2 construct: purchased Invitrogen
T2 sequence (P09598 39-283 limits assumed): as above
Description: as §5, §6, §7
as §8, with “To the non-PC-PLC controls, 25 μL of water was added instead of PC-PLC solution. The experiment was performed in triplicate. The reactions were protected from light.” left out

S=C(S)OC1CC2CC1C1CCCC21 (single isomer, unassigned; enantiomer 1a) [(−)-Enantiomer 1A, (−)-O-exo/C-exo-tricyclo[5.2.1.0^2,6]-dec-9-yl-xanthic acid 1A]
number of viral genomes per cell remaining ([1]; 10 μg/mL, after 6 passages): < 5% | viral DNA remaining ([1]; 10 μg/mL, after 9 passages): < 1% | reduction of the number of viral genomes per cell ([1]; 10 μg/mL, after a single passage): more than 50% | T50 DNA ([1]; listed as (−)-enantiomer 1A): < 1 passages | T50 DNA ([1]; listed as Cmpd 1A): <1 passages | multiplication factor ([2]; 3.3 μg/mL, passage 1): 2.9 | multiplication factor ([2]; 3.3 μg/mL, passage 9): 1.1 | multiplication factor ([2]; 10 μg/mL, from passage 7 on): < 1 | multiplication factor ([2]; 10 μg/mL, passage 5): 2.4 | multiplication factor ([2]; 10 μg/mL, passage 6): 1.3 | multiplication factor ([2]; 10 μg/mL, passage 9): 0.1 | IC50 on the inhibition of HPV-31 specific RNA expression [3]: 10.7 µg/mL | viral RNA remaining ([4]; 10 μg/mL, after 9 passages): < 1% | T50 RNA ([4]; listed as (−)-enantiomer 1A): < 1 passages | T50 RNA ([4]; listed as Cmpd 1A): <1 passages | inhibition of HPV-31 specific DNA [5]: 37.5% | IC50 [6]: 3.62 ± 0.17 µg/mL (≈ 15.9 µM) | LD50 [7]: 94.32 ± 7.33 µg/mL

S=C(S)OC1CC2CC1C1CCCC21 (centres unmarked) [Compound D609, tricyclodecan-9-yl-xanthogenate]
inhibition of phosphatidylcholine-specific phospholipase C [8]: specific inhibitor | IC50 [6]: 20.49 ± 1.99 µg/mL (≈ 89.7 µM) | IC50 ([9]; Human alphaherpesvirus 2, Calu-6 cells, 48 hr, 50 plaque forming units per well, read-out: IC50): 30.2 ± 6.77 µg/mL (≈ 132 µM) | Therapeutic Index ([9]; LD50 (Calu-6) divided by IC50 (HSV-2), 2880 min): 3.5 | CC50 at 48 h [10]: 105 ± 22 µg/mL (≈ 461 µM) | IC50 [11]: 21.6 ± 1.85 µg/mL (≈ 94.8 µM) | IC50 [12]: 89.7 µM | LD50 [7]: 105.18 ± 21.97 µg/mL

Source: patent US20100240746A1, “STEREOISOMERS OF TRICYCLODECAN-9-YL-XANTHOGENATE” (LUMAVITA AG, priority 2007, published 2010)
